Reference: patent publication EP4410314A1, “COMBINATION THERAPY COMPRISING ANTI-CD22 ANTIBODY-DRUG CONJUGATE AND IRAK1 INHIBITOR” (ADC Therapeutics SA, priority 2023, dated 2024)

Assays:
REH = assay: In vitro cytotoxicity, REH; assay type: cell-based, human; details: REH (B-ALL), CD22-positive; mean ± SEM
KARPAS-299 [1] = assay: In vitro cytotoxicity, KARPAS-299; assay type: cell-based, human; details: KARPAS-299 (ALCL), CD22-negative; mean ± SEM
SUP-T1 = assay: In vitro cytotoxicity, SUP-T1; assay type: cell-based, human; details: SUP-T1 (T-LL), CD22-negative; mean ± SEM
Ramos cells = assay: DNA interstrand crosslinks, single cell gel electrophoresis (Comet) assay, Ramos; assay type: cell-based, human
Experimental: (§1) Quantification of in vitro DNA interstrand crosslinks (ICLs) was performed using the single cell gel electrophoresis (Comet) assay.
(§2) DNA ICLs were measured using a modification of the single-cell gel electrophoresis (Comet) assay, and crosslinking was expressed as the percentage decrease in Olive tail moment (OTM) versus control irradiated cells. […] Immediately after the drug incubation period, a low level of ICLs (3%) was observed, which increased over time to near peak levels (≈50%) at 12 hours and persisted up to 48 hours. […] In this cell line, SG3199 produced a high level of ICL (≈50%), similar to that observed in the Ramos cell line.

NALM-6 = assay: In vitro cytotoxicity, NALM-6; assay type: cell-based, human; details: NALM-6 (B-ALL), CD22-positive; mean ± SEM
GRANTA-519 = assay: In vitro cytotoxicity, GRANTA-519; assay type: cell-based, human; details: GRANTA-519 (MCL), CD22-positive; mean ± SEM
Ramos = assay: In vitro cytotoxicity, Ramos; assay type: cell-based, human; details: Ramos (BL), CD22-positive; mean ± SEM
MEC-2 = assay: In vitro cytotoxicity, MEC-2; assay type: cell-based, human; details: MEC-2 (CLL), CD22-positive; mean ± SEM
DO HH-2 = assay: In vitro cytotoxicity, DO HH-2; assay type: cell-based, human; details: DO HH-2 (FL), CD22-positive; mean ± SEM
Daudi = assay: In vitro cytotoxicity, Daudi; assay type: cell-based, human; details: Daudi (BL), CD22-positive; mean ± SEM
KM-H2 = assay: In vitro cytotoxicity, KM-H2; assay type: cell-based, human; details: KM-H2 (HL), CD22-negative; mean ± SEM
SEM cells = assay: In vitro cytotoxicity, SEM; assay type: cell-based, human; details: SEM (B-ALL), CD22-positive; mean ± SEM
NAMALWA = assay: In vitro cytotoxicity, NAMALWA; assay type: cell-based, human; details: NAMALWA (BL), CD22-positive; mean ± SEM
KARPAS-299 [2] = assay: DNA interstrand crosslinks, single cell gel electrophoresis (Comet) assay, KARPAS-299; assay type: cell-based, human; details: KARPAS-299 (CD22-negative), over 48 hours following a 2-hour treatment
Experimental: as §1, §2

CD22 = CD22 cell surface expression after chidamide treatment, flow cytometry; assay type: cell-based; details: chidamide 0.25 or 0.5 µM for 7 days; Ramos, TMD8, and SU-DHL-4 cell lines
Experimental: Chidamide (Selleckchem) was dissolved in dimethyl sulfoxide (DMSO) according to the manufacturer's instructions. Cells were treated with chidamide (0.25 or 0.5 µM) for 7 days at 37°C in a 5% carbon dioxide-gassed, humidified incubator. On day 3, cells were centrifuged, and fresh medium containing the corresponding concentrations of chidamide was added. The control group was treated with equal volumes of DMSO.
CD22 cell surface expression after chidamide treatment was measured by flow cytometry. hLL2-C220 and B12 antibodies, followed by Alexa Fluor 488 anti-human secondary antibodies (Life Technologies, Thermo Fisher Scientific) or allophycocyanin anti-human secondary antibodies (BioLegend), were used for CD22 detection. Cells were analyzed using a CytoFLEX Flow Cytometer (Beckman Coulter), and data were analyzed with FlowJo software version 10.8.1 (BD Biosciences).

| Compound | IC50 (REH) | IC50 (KARPAS-299 [1]) | IC50 (SUP-T1) | DNA ICLs, percentage decrease in Olive tail moment (OTM) versus control irradiated cells (Ramos cells; 2-hour exposure, immediately after the drug incubation period) | DNA ICLs, percentage decrease in Olive tail moment (OTM) versus control irradiated cells (Ramos cells; after 2 hours following drug incubation) | persistence of DNA ICLs (Ramos cells; following 2-hour exposure) | IC50 (NALM-6) | IC50 (GRANTA-519) | IC50 (Ramos) | IC50 (MEC-2) | IC50 (DO HH-2) | IC50 (Daudi) | IC50 (KM-H2) | IC50 (SEM cells) | IC50 (NAMALWA) | DNA ICLs, percentage decrease in Olive tail moment (OTM) versus control irradiated cells (KARPAS-299 [2]) | increase of CD22 expression compared with DMSO-treated cells (MFI fold change) (CD22) |
| --- | --- | --- | --- | --- | --- | --- | --- | --- | --- | --- | --- | --- | --- | --- | --- | --- | --- |
| COc1cc2c(cc1OCCCCCOc1cc3c(cc1OC)C(=O)N1C=C(C)C[C@H]1C=N3)N=C[C@@H]1CC(C)=CN1C2=O [SG3199] | 0.001 nM | 0.025 ± 0.001 nM | 0.026 ± 0.005 nM | 46% | 56% | up to 48 hours | 0.002 nM | 0.002 nM | 0.016 ± 0.001 nM | 0.033 ± 0.009 nM | 0.007 ± 0.001 nM | 0.008 ± 0.001 nM | 0.036 ± 0.005 nM | 0.005 ± 0.002 nM | 0.014 ± 0.001 nM | ≈ 50% |  |
| Nc1cc(F)ccc1NC(=O)c1ccc(CNC(=O)/C=C/c2cccnc2)cc1 [chidamide] |  |  |  |  |  |  |  |  |  |  |  |  |  |  |  |  | up to 2.4 times |
